One assay deals with BCL2 WT (Homo sapiens (Human), UniProt P10415). In words: TR-FRET competitive binding assay, BCL2 WT. The note with it: Ki determined from IC50, read-out: TR_FRET EKI_Bcl2 WT. Summed up:
(§1)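 Terbium-labelled N-terminal Halo-fusion BCL2 or BCLXL (E. coli), 0.5 nM, competed against fluorescein-labelled PUMA peptide (2 or 20 nM) for 2 h at 23° C in 50 mM Hepes pH 7.5, 150 mM NaCl, 5% DMSO. TR-FRET 520/495 nm ratio gave IC50 by four-parameter fit; Ki derived from IC50.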
(In general: Time-resolved FRET reads energy transfer from a long-lived donor to a nearby acceptor.)

In assay [1] the target is BCL2 G101V (Homo sapiens, UniProt P10415, G101V). In words: TR-FRET competitive binding assay, BCL2 G101V. To be noted: BCL2 G101V; Ki determined from IC50; read-out: TR_FRET EKI_Bcl2 G101V. Summed up: as §1
Assay [2] concerns BCL2 G101V. In words: TR-FRET competitive binding assay, BCL2 G101V. The arrangement: species or system human. The note with it: ratio Ki BCL2 G101V / Ki BCL2 WT. The gist of the method: as §1
The next assay has as its target BCL2 D103Y (Homo sapiens, UniProt P10415, D103Y). In words: TR-FRET competitive binding assay, BCL2 D103Y. To be noted: Ki determined from IC50, read-out: TR_FRET EKI_Bcl2 D103Y. The gist of the method: as §1
The next assay deals with BCLXL WT (Homo sapiens (Human), UniProt Q07817). In words: TR-FRET competitive binding assay, BCLXL WT. The note with it: for Ki: BCLXL WT, Ki determined from IC50, read-out: TR_FRET EKI BclxL; for TR_FRET EKI BCLxL/WT selectivty ratio: ratio Ki BCLxL / Ki BCL2 WT. The gist of the method:
as §1

A further assay has as its system KMS-12-PE Bcl-2 WT. In words: In vitro cytotoxicity CellTiter-Glo 48 h, KMS-12-PE Bcl-2 WT. The class given is cell-based. To be noted: Homo sapiens, KMS-12-PE, C50 = concentration needed to reach 50% of the cellular viability. The gist of the method:
(§2)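 CTG luminescence read-out; C50 = concentration reaching 50% cellular viability. Cells: KMS-12-PE expressing Bcl-2 WT or G101V (lentiviral, TagRFP-sorted). 11-pt curve, 48 h, 37 °C/5% CO2.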
Background: In ATP-based viability assays light output follows the ATP content of the culture.

For another assay, the system named is KMS-12-PE Bcl-2 G101V. As to the kind of experiment: In vitro cytotoxicity CellTiter-Glo 48 h, KMS-12-PE Bcl-2 G101V. The class given is cell-based. The note with it: for Ratio (G101V/WT): C50 KMS-12-PE Bcl-2 G101V over C50 KMS-12-PE Bcl-2 WT; for IC50: Homo sapiens, KMS-12-PE, 48 h, CellTiter-Glo, C50 = concentration needed to reach 50% of the cellular viability. Summed up:
as §2

Usually IC50 stands for the concentration that inhibits the measured activity by half. Lower therefore signals inhibition by little substance.

BCLXL WT, sequence (Q07817 other isoform, or with tags, fused parts or gaps): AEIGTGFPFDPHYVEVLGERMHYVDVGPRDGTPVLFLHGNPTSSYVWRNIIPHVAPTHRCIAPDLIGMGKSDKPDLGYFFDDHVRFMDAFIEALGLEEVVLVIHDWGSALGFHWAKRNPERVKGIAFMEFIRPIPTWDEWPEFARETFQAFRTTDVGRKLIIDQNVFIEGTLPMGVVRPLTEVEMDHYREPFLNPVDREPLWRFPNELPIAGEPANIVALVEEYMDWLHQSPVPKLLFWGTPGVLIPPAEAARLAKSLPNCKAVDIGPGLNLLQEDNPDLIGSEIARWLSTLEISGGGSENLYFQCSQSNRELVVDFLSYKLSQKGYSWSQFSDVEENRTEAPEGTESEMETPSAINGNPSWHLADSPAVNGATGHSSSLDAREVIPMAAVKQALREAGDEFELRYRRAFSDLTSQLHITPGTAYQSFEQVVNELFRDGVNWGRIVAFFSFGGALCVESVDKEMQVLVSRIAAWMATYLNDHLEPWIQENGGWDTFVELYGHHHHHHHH

Turning to `Cc1c(N(C(=O)c2cc(-c3cc4c(cc3C(=O)N3Cc5ccccc5C[C@H]3CN3CCCCC3)CN(C(=O)Cc3ccc(OCCN5CCO[C@H](C)C5)cc3)CC4)n(C)c2C)c2ccc(O)cc2)cc(C#N)n1C` [Example 151, N-(5-cyano-1,2-dimethyl-1H-pyrrol-3-yl)-N-(4-hydroxyphenyl)-1,2-dimethyl-5-[2-(2-{4-[2-((2R)-2-methylmorpholin-4-yl)ethoxy]phenyl}acetyl)-7-[(3S)-3-[(piperidin-1-yl)methyl]-1,2,3,4-tetrahydroisoquinoline-2-carbonyl]-1,2,3,4-tetrahydroisoquinolin-6-yl]-1H-pyrrole-3-carboxamide], the Ki on BCL2 WT came out at 0.05 nM; on BCL2 G101V [1], 0.3 nM; on BCL2 D103Y it was 0.1 nM; on BCLXL WT, 2.7 nM. The “TR_FRET EKI G101V/WT selectivty ratio” value in the assay with BCL2 G101V [2] is on record as 6.4. Further, on BCLXL WT, the “TR_FRET EKI BCLxL/WT selectivty ratio” value turned out to be 57.4. Besides, the IC50 turned out to be 0.0105 µM with KMS-12-PE Bcl-2 WT and 0.0635 µM in the assay on KMS-12-PE Bcl-2 G101V. The “Ratio (G101V/WT)” value in the assay on KMS-12-PE Bcl-2 G101V amounted to 6.0476.

Turning to `Cc1c(N(C(=O)c2cc(-c3cc4c(cc3C(=O)N3Cc5ccccc5C[C@H]3CN3CCC[C@H](C)C3)CN(C(=O)Cc3ccc(OCCN5CCOCC5)cc3)CC4)n(C)c2C)c2ccc(O)cc2)cc(C#N)n1C` [Example 153, N-(5-cyano-1,2-dimethyl-pyrrol-3-yl)-N-(4-hydroxyphenyl)-1,2-dimethyl-5-[7-[(3S)-3-[[(3S)-3-methyl-1-piperidyl]methyl]-3,4-dihydro-1H-isoquinoline-2-carbonyl]-2-[2-[4-(2-morpholinoethoxy)phenyl]acetyl]-3,4-dihydro-1H-isoquinolin-6-yl]pyrrole-3-carboxamide], the Ki stood at 0.13 nM on BCL2 WT, 0.4 nM on BCL2 G101V [1], 0.38 nM on BCL2 D103Y and 5.2 nM at BCLXL WT. In the assay on BCL2 G101V [2], the “TR_FRET EKI G101V/WT selectivty ratio” value stood at 3.5. Also, at BCLXL WT, the “TR_FRET EKI BCLxL/WT selectivty ratio” value was 41.6. Also, the IC50 in the assay on KMS-12-PE Bcl-2 WT came to 0.0095 µM; with KMS-12-PE Bcl-2 G101V, 0.051 µM. For the same compound, the “Ratio (G101V/WT)” value in the assay with KMS-12-PE Bcl-2 G101V is recorded as 5.3741.

In the case of `Cc1c(N(C(=O)c2cc(-c3cc4c(cc3C(=O)N3Cc5ccccc5C[C@H]3CN3CCCC3)CN(C(=O)Cc3ccc(OCCN5CCN(CC(F)F)CC5)cc3)CC4)n(C)c2C)c2ccc(O)cc2)cc(C#N)n1C` [Example 154, N-(5-cyano-1,2-dimethylpyrrol-3-yl)-5-{2-[2-(4-{2-[4-(2,2-difluoroethyl)piperazin-1-yl]ethoxy}phenyl)acetyl]-7-{[(3S)-3-(pyrrolidin-1-ylmethyl)-3,4-dihydro-1H-isoquinolin-2-yl]carbonyl}-3,4-dihydro-1H-isoquinolin-6-yl}-N-(4-hydroxyphenyl)-1,2-dimethylpyrrole-3-carboxamide], the Ki was 0.04 nM at BCL2 WT, 0.3 nM on BCL2 G101V [1], 0.14 nM at BCL2 D103Y and 4.1 nM on BCLXL WT. Also, in the assay with BCL2 G101V [2], the “TR_FRET EKI G101V/WT selectivty ratio” value worked out at 8.4. In addition, the “TR_FRET EKI BCLxL/WT selectivty ratio” value at BCLXL WT stood at 110.8. Also, the IC50 with KMS-12-PE Bcl-2 WT worked out at 0.067 µM; with KMS-12-PE Bcl-2 G101V it was 0.265 µM. Moreover, the “Ratio (G101V/WT)” value in the assay on KMS-12-PE Bcl-2 G101V was determined as 3.9552.

Consider `CCN(C[C@@H]1Cc2ccccc2CN1C(=O)c1cc2c(cc1-c1cc(C(=O)N(c3ccc(O)cc3)c3cc(C#N)n(C)c3C)c(C)n1C)CCN(C(=O)Cc1ccc(OCCN3CCOCC3)cc1F)C2)C(C)C` [Example 155, N-(5-cyano-1,2-dimethylpyrrol-3-yl)-5-(7-{[(3S)-3-{[ethyl(isopropyl)amino]methyl}-3,4-dihydro-1H-isoquinolin-2-yl]carbonyl}-2-(2-{2-fluoro-4-[2-(morpholin-4-yl)ethoxy]phenyl}acetyl)-3,4-dihydro-1H-isoquinolin-6-yl)-N-(4-hydroxyphenyl)-1,2-dimethylpyrrole-3-carboxamide], for which the Ki on BCL2 WT turned out to be 0.04 nM; on BCL2 G101V [1] it was 0.4 nM; at BCL2 D103Y, 0.11 nM; at BCLXL WT, 1.7 nM. In the assay on BCL2 G101V [2], the “TR_FRET EKI G101V/WT selectivty ratio” value worked out at 8.8. Moreover, on BCLXL WT, the “TR_FRET EKI BCLxL/WT selectivty ratio” value worked out at 39.5. The IC50 was 0.0105 µM with KMS-12-PE Bcl-2 WT and 0.0849 µM in the assay with KMS-12-PE Bcl-2 G101V. For the same compound, the “Ratio (G101V/WT)” value in the assay with KMS-12-PE Bcl-2 G101V turned out to be 8.0857.

Take `Cc1c(N(C(=O)c2cc(-c3cc4c(cc3C(=O)N3Cc5ccccc5C[C@H]3CN3CC[C@@H](C)C3)CN(C(=O)Cc3ccc(OCCN5CCOCC5)cc3F)CC4)n(C)c2C)c2ccc(O)cc2)cc(C#N)n1C` [Example 156, N-(5-cyano-1,2-dimethylpyrrol-3-yl)-5-[2-(2-{2-fluoro-4-[2-(morpholin-4-yl)ethoxy]phenyl}acetyl)-7-{[(3S)-3-{[(3R)-3-methylpyrrolidin-1-yl]methyl}-3,4-dihydro-1H-isoquinolin-2-yl]carbonyl}-3,4-dihydro-1H-isoquinolin-6-yl]-N-(4-hydroxyphenyl)-1,2-dimethylpyrrole-3-carboxamide]: the Ki at BCL2 WT was 0.05 nM; at BCL2 G101V [1] it was 0.2 nM; on BCL2 D103Y it was 0.1 nM; at BCLXL WT it was 2.7 nM. For the same compound, the “TR_FRET EKI G101V/WT selectivty ratio” value in the assay on BCL2 G101V [2] was determined as 4.0. Also, the “TR_FRET EKI BCLxL/WT selectivty ratio” value at BCLXL WT was found to be 50.9. The IC50 came to 0.0154 µM with KMS-12-PE Bcl-2 WT and 0.0811 µM in the assay with KMS-12-PE Bcl-2 G101V. The “Ratio (G101V/WT)” value in the assay on KMS-12-PE Bcl-2 G101V was 5.2662.

With `Cc1c(N(C(=O)c2cc(-c3cc4c(cc3C(=O)N3Cc5ccccc5C[C@H]3CN3CC[C@H](C)C3)CN(C(=O)Cc3ccc(OCCN5CCOCC5)cc3F)CC4)n(C)c2C)c2ccc(O)cc2)cc(C#N)n1C` [Example 157, N-(5-cyano-1,2-dimethylpyrrol-3-yl)-5-[2-(2-{2-fluoro-4-[2-(morpholin-4-yl)ethoxy]phenyl}acetyl)-7-{[(3S)-3-{[(3S)-3-methylpyrrolidin-1-yl]methyl}-3,4-dihydro-1H-isoquinolin-2-yl]carbonyl}-3,4-dihydro-1H-isoquinolin-6-yl]-N-(4-hydroxyphenyl)-1,2-dimethylpyrrole-3-carboxamide], the Ki on BCL2 WT was 0.04 nM; on BCL2 G101V [1], 0.3 nM; on BCL2 D103Y it was 0.09 nM; at BCLXL WT, 2 nM. The “TR_FRET EKI G101V/WT selectivty ratio” value in the assay on BCL2 G101V [2] is 7.7. For the same compound, on BCLXL WT, the “TR_FRET EKI BCLxL/WT selectivty ratio” value turned out to be 45.5. The IC50 in the assay with KMS-12-PE Bcl-2 WT came to 0.0171 µM; in the assay on KMS-12-PE Bcl-2 G101V, 0.0955 µM. For the same compound, the “Ratio (G101V/WT)” value in the assay on KMS-12-PE Bcl-2 G101V was determined as 5.5848.

Consider `Cc1c(C(=O)N(c2ccc(O)cc2)c2cc(C#N)n(C(F)F)c2C)cc(-c2cc3c(cc2C(=O)N2Cc4ccccc4C[C@H]2CN2CCCCC2)CN(C(=O)Cc2ccc(OCCN4CCC(F)CC4)cc2F)CC3)n1C` [Example 158], for which the Ki amounted to 0.1 nM at BCL2 WT, 0.9 nM on BCL2 G101V [1], 0.47 nM on BCL2 D103Y and 5.4 nM on BCLXL WT. Further, in the assay with BCL2 G101V [2], the “TR_FRET EKI G101V/WT selectivty ratio” value was found to be 9.4. Also, the “TR_FRET EKI BCLxL/WT selectivty ratio” value on BCLXL WT was 54.0. In addition, the results for the IC50 in the assay on KMS-12-PE Bcl-2 WT and in the assay with KMS-12-PE Bcl-2 G101V were 0.0068 µM and 0.0546 µM, respectively. Also, the “Ratio (G101V/WT)” value in the assay with KMS-12-PE Bcl-2 G101V was determined as 8.0412.
